Converted amounts (≈) assume the structure as drawn. Like-named read-outs stand apart in the source and are kept apart here. Values belong to the compound of their own block, whether it stands above or below them.
What was measured:
A549 cells = assay: MTT cytotoxicity assay in A549 cells; assay type: cell-based; conditions: Homo sapiens
Experimental: A 3-[4,5-dimehyl-2-thiazolyl]-2,5-diphenyl-2H-tetrazoliumbromide (MTT) assay was utilized to assess the concentration-response curves for quinazoline analogues as previously reported. A549 cells (ATCC CCL-185, human alveolar basal epithelial cell line) were used to account for the general cytotoxicity of compounds. Cells were cultured in DMEM medium containing fetal bovine serum (FBS; 10%), penicillin (10 U/mL), and streptomycin (100 U/mL). The temperature was maintained at 37 °C with 5% CO2. Cells were seeded for 16–18 h in DMEM and incubated for 72 h with the test compounds. After incubation, MTT (5 mg/mL in normal saline) was added with DMEM and incubated for 3 h. Careful decantation of the medium and addition of DMSO (50 µL) was done. Absorbance values were recorded at 570 nm after 5 min mechanical shaking of the microplate (Sunrise microplate reader, Tecan).
The activity was presented as the inhibitory concentration required to produce a 50% response (IC50). Prism 6.0 GraphPad Software Inc., (San Diego, CA, USA) was utilized for data fitting. 0.5% DMSO was used as the negative control.

[1] = system: endothelium-intact rat pulmonary arterial rings; assay: Vasorelaxation of PE pre-contracted endothelium-intact (E+) pulmonary arterial rings, organ bath; conditions: Rattus norvegicus; for Emax: maximal relaxation, endothelium-intact rings, up to 30 µM, mean ± SEM; for IC50: Table S3, endothelium-intact, read-out: E+ Vaso. pIC50 (converted); for EC50: endothelium-intact (E+) rings pre-contracted with 10^-5 M PE, cumulative 0.0001–30 µM, mean (SEM), n = 6, read-out: Vaso E+ EC50 µM (SEM)
physchem = conditions: for solubility thermodynamic at 6 h: pH 7.4, aqueous buffer, thermodynamic from solid
Experimental: The solubility of the compounds under investigation here were assessed in phosphate buffer at pH 7.4 using the equilibrium shake-flask method.
An equilibrium shake-flask technique was used to determine the solubility of samples in PBS at pH 7.4. Approximately 1 mg of sample was placed in a 10 mL glass screw top vial and dissolved in 1 mL of 0.02 M PBS at pH 7.4. The solution was sonicated for 1 h, followed by shaking for 6 h (IKA HS 260). The saturated solution was then filtered using a nylon syringe filter. A standard solution of each sample was prepared by dissolving a weighed amount of the sample in 1 mL of DMSO. The concentration of sample dissolved in the PBS solution was determined by comparing the peak area of the PBS and DMSO standard using an Agilent 1100 series HPLC with a Sunshell C8 column (Chromanik Technologies Inc., Osaka, Japan). A 100 µL injection of the aqueous sample and 5 µL of DMSO solution (pre-diluted 100 fold using DMSO) were used.

[2] = system: endothelium-denuded rat pulmonary arterial rings; assay: Vasorelaxation of PE pre-contracted endothelium-denuded (E−) pulmonary arterial rings, organ bath; conditions: for IC50: Table S3, endothelium-denuded, read-out: E- Vaso. pIC50 (converted); for EC50: endothelium-denuded (E−) rings pre-contracted with 10^-5 M PE, cumulative 0.0001–30 µM, mean (SEM), n = 6, read-out: Vaso E− EC50 µM (SEM); for Emax: maximal relaxation, endothelium-denuded rings, up to 30 µM, mean ± SEM
[3] = system: PE-induced contraction of endothelium-denuded pulmonary arterial rings; assay: Inhibition of phenylephrine (PE)-induced contraction in endothelium-denuded arterial rings; parameters: species or system rat; conditions: 10 µM compound, 15 min pre-incubation, E− rings; for inhibition at 10 µM: Rattus norvegicus, PE 0.0001–100 µM, n = 3–5, read-out: % PE-Contraction Inhibition (SEM)
Experimental: These experiments were undertaken to assess the pharmacological activity of quinazoline analogues against the structurally related α1 receptor blocker (prazosin). In contrast to previous vasorelaxant experiments, this protocol was developed to determine the inhibitory effect of pre-incubated (15 min) inhibitors (10 µM) on the concentration-dependent vasoconstriction induced by cumulative addition of PE (0.0001–100 µM) in endothelium-denuded pulmonary arterial rings. Figure 5 illustrates the real time contractile response shown by the pulmonary arterial ring upon cumulative addition of PE, which evoked a concentration-dependent vasoconstriction, increasing the vessel’s tension.
After anesthesia with thiopental sodium (100 mg/kg, i.p.) (Anesthal®, Jagsonpsal Pharmaceutical Ltd., Haryana, India), rats were euthanized by exsanguination. Lungs were carefully excised, cleaned by the removal of connective tissue, and placed in cold physiological Krebs’ solution composed of (mM): NaCl 122; KCl 5; N-[2-hydroxyethyl] piperazine-N′-[2-ethane-sulfonic acid] (HEPES) 10; KH2PO4 0.5; NaH2PO4 0.5; MgCl2 1; CaCl2 1.8; and glucose 11 adjusted to pH 7.3 using 1 M NaOH. The pulmonary artery was isolated from the lungs and cut into rings approximately 2 mm in length before mounting in the organ bath chambers. Endothelial cells were mechanically removed in some experiments by gentle rubbing of the inner surface with forceps. Pulmonary arterial rings were mounted on intraluminal wires via stainless steel hooks maintaining the resting tension at 1 g and rings were equilibrated for 30 min before obtaining a stable contraction with 10^−5 M phenylephrine (PE). The rings were immersed in 10 mL baths containing physiological Krebs’ solution at 37 °C, which was continuously bubbled with air. Force transducers were connected with intraluminal wires to measure isometric tension via a Mac Lab A/D converter (Chart V5, A.D. Instruments, Castle Hill, NSW, Australia). The functional integrity of the endothelium in the vessels was confirmed by vasorelaxation of ≥70% with sequential addition of 10^−5 M acetylcholine (ACh) to pre-contracted vessels with 10^−5 M PE. Relaxations ≤30% to 10^−5 M ACh in vessels rubbed mechanically were considered successfully endothelium denuded.
The protocol included the assessment of the inhibitory vasoconstriction effect of quinazoline test compounds on endothelium-denuded arterial rings. Briefly, the arterial rings were treated with the α1-receptor blocker (prazosin) or test compound at a concentration of 10 µM for 15 min before construction of the second concentration response curve with cumulative addition of PE (0.0001–100 µM). The same conditions were used to test the effects of the solvent (DMSO 0.2%). The results were obtained in percentages by comparison of the maximum contraction without treatment with the contraction in the presence of the test compound [24, 36, 37].

[4] = A549, MTT, 72 h incubation, read-out: A549 IC50, µM (S.D.)
[5] = Table S3, A549, read-out: Cytox. pIC50 (converted)

SMILES: NS(=O)(=O)c1cccc(Nc2nc(NCc3cccs3)c3ccccc3n2)c1 [Compound 11]
IC50 (A549 cells; [4]): 15 µM | IC50 (A549 cells; [5]): 15.1 µM | Emax [1]: 98.7 ± 1.26% | IC50 [1]: 2.29 µM | EC50 [1]: 2.28 µM | Log Sol (physchem; 6 h, pH 7.4): -0.47 | Sol. pH7.4 (µM) (physchem; 6 h, pH 7.4): 0.34 µM | solubility thermodynamic at 6 h (physchem): 140 µg/mL (≈ 340 µM) | IC50 [2]: 11 µM | EC50 [2]: 10.9 µM | Emax [2]: 87.4 ± 4.66%

SMILES: CN(C)S(=O)(=O)c1ccc(Nc2nc(NCc3ccccc3)c3ccccc3n2)cc1 [Compound 3]
IC50 (A549 cells; [4]): 18.3 µM | IC50 (A549 cells; [5]): 18.2 µM | Emax [1]: 82.4 ± 5.9% | IC50 [1]: 3.55 µM | EC50 [1]: 3.59 µM | Log Sol (physchem; 6 h, pH 7.4): -0.06 | Sol. pH7.4 (µM) (physchem; 6 h, pH 7.4): 0.88 µM | solubility thermodynamic at 6 h (physchem): 380 µg/mL (≈ 877 µM) | IC50 [2]: 6.31 µM | EC50 [2]: 6.25 µM | Emax [2]: 64.3 ± 5.31%

SMILES: NS(=O)(=O)c1cccc(Nc2nc(NCc3ccco3)c3ccccc3n2)c1 [Compound 13]
IC50 (A549 cells; [4]): 26.9 µM | IC50 (A549 cells; [5]): 26.9 µM | inhibition at 10 µM [3]: 45.9% | maximal contraction induced by PE attenuated to ([3]; remaining contraction): 54.07 ± 11.69% | Emax [1]: 95.5 ± 2.17% | IC50 [1]: 6.61 µM | EC50 [1]: 6.61 µM | Log Sol (physchem; 6 h, pH 7.4): -0.42 | Sol. pH7.4 (µM) (physchem; 6 h, pH 7.4): 0.38 µM | solubility thermodynamic at 6 h (physchem): 150 µg/mL (≈ 379 µM) | IC50 [2]: 3.02 µM | EC50 [2]: 3.02 µM | Emax [2]: 95.6 ± 2.75%

SMILES: NC(=O)c1ccc(Nc2nc(NCc3cccs3)c3ccccc3n2)cc1 [Compound 10]
IC50 (A549 cells; [4]): 28.3 µM | IC50 (A549 cells; [5]): 28.2 µM | Emax [1]: 90.2 ± 6.48% | IC50 [1]: 1.45 µM | EC50 [1]: 1.46 µM | Log Sol (physchem; 6 h, pH 7.4): 0.08 | Sol. pH7.4 (µM) (physchem; 6 h, pH 7.4): 1.20 µM | solubility thermodynamic at 6 h (physchem): 450 µg/mL (≈ 1200 µM) | IC50 [2]: 5.13 µM | EC50 [2]: 5.15 µM | Emax [2]: 90.4 ± 5.3%

SMILES: NS(=O)(=O)c1ccc(Nc2nc(NCc3cccs3)c3ccccc3n2)cc1 [Compound 9]
IC50 (A549 cells; [4]): 32.7 µM | IC50 (A549 cells; [5]): 32.4 µM | Emax [1]: 98.4 ± 1.4% | IC50 [1]: 1.02 µM | EC50 [1]: 1.03 µM | Log Sol (physchem; 6 h, pH 7.4): -0.80 | Sol. pH7.4 (µM) (physchem; 6 h, pH 7.4): 0.16 µM | solubility thermodynamic at 6 h (physchem): 60 µg/mL (≈ 146 µM) | IC50 [2]: 1.74 µM | EC50 [2]: 1.72 µM | Emax [2]: 82.1 ± 8.43%

SMILES: CCCc1nn(C)c2c(=O)[nH]c(-c3cc(S(=O)(=O)N4CCN(C)CC4)ccc3OCC)nc12 [Sildenafil (SIL), Sildenafil, reference compound]
inhibition at 10 µM [3]: 58.3% | Emax [1]: 97.8 ± 2.19% | EC50 [1]: 0.14 µM | Sol. pH7.4 mg/mL (physchem; PBS pH 7.4, shake-flask): 20.83 mg/mL | Sol. pH7.4 (µM) (physchem; PBS pH 7.4, shake-flask, value in brackets): 43.88 µM | solubility thermodynamic at 6 h (physchem; phosphate buffered saline (PBS)): 20800 µg/mL (≈ 43900 µM) | EC50 [2]: 0.89 µM | Emax [2]: 85.8 ± 6.41%

SMILES: NC(=O)c1cccc(Nc2nc(NCc3cccs3)c3ccccc3n2)c1 [Compound 12]
IC50 (A549 cells; [4]): 15.4 µM | IC50 (A549 cells; [5]): 15.5 µM | Emax [1]: 98.7 ± 1.31% | IC50 [1]: 4.17 µM | EC50 [1]: 4.15 µM | Log Sol (physchem; 6 h, pH 7.4): -0.25 | Sol. pH7.4 (µM) (physchem; 6 h, pH 7.4): 0.56 µM | solubility thermodynamic at 6 h (physchem): 210 µg/mL (≈ 559 µM) | IC50 [2]: 8.13 µM | EC50 [2]: 8.15 µM | Emax [2]: 87.1 ± 3.63%

Second part, led by results:

IC50 [1]: 3.16 µM | EC50 [1]: 3.13 µM | Log Sol (physchem; 6 h, pH 7.4): -1.52 | Sol. pH7.4 (µM) (physchem; 6 h, pH 7.4): 0.03 µM | solubility thermodynamic at 6 h (physchem): 10 µg/mL (≈ 24.7 µM) | IC50 [2]: 8.32 µM | EC50 [2]: 8.29 µM
SMILES: NS(=O)(=O)c1ccc(Nc2nc(NCc3ccccc3)c3ccccc3n2)cc1 [Compound 4]
IC50 (A549 cells; [4]): 23 µM | IC50 (A549 cells; [5]): 22.9 µM | Emax [1]: 88.5 ± 5.58% | Emax [2]: 78.5 ± 9.19%

IC50 [1]: 5.5 µM | EC50 [1]: 5.54 µM | Log Sol (physchem; 6 h, pH 7.4): -0.39 | Sol. pH7.4 (µM) (physchem; 6 h, pH 7.4): 0.41 µM | solubility thermodynamic at 6 h (physchem): 130 µg/mL (≈ 398 µM) | IC50 [2]: 13.5 µM | EC50 [2]: 13.5 µM
SMILES: c1ccc(CNc2nc(Nc3ccccc3)nc3ccccc23)cc1 [Compound 1]
IC50 (A549 cells; [4]): 12.3 µM | IC50 (A549 cells; [5]): 12.3 µM | Emax [1]: 90 ± 5.64% | Emax [2]: 86.4 ± 4.03%

IC50 [1]: 9.33 µM | EC50 [1]: 9.42 µM | Log Sol (physchem; 6 h, pH 7.4): -0.40 | Sol. pH7.4 (µM) (physchem; 6 h, pH 7.4): 0.40 µM | solubility thermodynamic at 6 h (physchem): 130 µg/mL (≈ 391 µM) | IC50 [2]: 9.33 µM | EC50 [2]: 9.51 µM
SMILES: c1ccc(Nc2nc(NCc3cccs3)c3ccccc3n2)cc1 [Compound 6]
IC50 (A549 cells; [4]): 27.8 µM | IC50 (A549 cells; [5]): 27.5 µM | Emax [1]: 88 ± 7.39% | Emax [2]: 91.2 ± 5.26%

IC50 [1]: 1.62 µM | EC50 [1]: 1.63 µM | Log Sol (physchem; 6 h, pH 7.4): 0.14 | Sol. pH7.4 (µM) (physchem; 6 h, pH 7.4): 1.37 µM | solubility thermodynamic at 6 h (physchem): 560 µg/mL (≈ 1380 µM) | IC50 [2]: 1.15 µM | EC50 [2]: 1.15 µM
SMILES: NS(=O)(=O)c1cccc(Nc2nc(NCc3ccccc3)c3ccccc3n2)c1 [Compound 5]
IC50 (A549 cells; [4]): 11.2 µM | IC50 (A549 cells; [5]): 11.2 µM | Emax [1]: 91.7 ± 3.77% | Emax [2]: 95.8 ± 2.4%

Reference: article PMC6358775, “Elucidation of Vasodilation Response and Structure Activity Relationships of N^2,N^4-Disubstituted Quinazoline 2,4-Diamines in a Rat Pulmonary Artery Model” (Molecules, 2019)
